What was measured:
[1] = target: T1, SIK3 kinase (aa59-365, Thermo Fisher) (Homo sapiens, UniProt Q9Y2K2); assay: Biochemical activities determination for SIK3 protein (TR-FRET); conditions: 125 uM ATP, 0.5 μM STK1 substrate
T1 construct: SIK3 kinase (aa59-365, Thermo Fisher); purchased Thermo Fisher
In short: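 SIK3 (aa59-365) was preincubated with compound (0-10 μM) for 60 min at room temperature in Tris buffer pH 7.5. The reaction was then started with 125 uM ATP and 0.5 μM STK1 substrate and run 180 min at room temperature. Phospho-substrate was detected by HTRF (665/620 nm ratio), and IC50 came from a four-parameter logistic fit.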

[2] = target: T2, SIK2 kinase (full length, Thermo Fisher) (Homo sapiens, UniProt Q9H0K1); assay: Biochemical activities determination for SIK2 protein (TR-FRET); conditions: 80 uM ATP, 0.5 μM substrate
T2 construct: SIK2 kinase (full length, Thermo Fisher); purchased Thermo Fisher
T2 sequence (Q9H0K1 whole entry): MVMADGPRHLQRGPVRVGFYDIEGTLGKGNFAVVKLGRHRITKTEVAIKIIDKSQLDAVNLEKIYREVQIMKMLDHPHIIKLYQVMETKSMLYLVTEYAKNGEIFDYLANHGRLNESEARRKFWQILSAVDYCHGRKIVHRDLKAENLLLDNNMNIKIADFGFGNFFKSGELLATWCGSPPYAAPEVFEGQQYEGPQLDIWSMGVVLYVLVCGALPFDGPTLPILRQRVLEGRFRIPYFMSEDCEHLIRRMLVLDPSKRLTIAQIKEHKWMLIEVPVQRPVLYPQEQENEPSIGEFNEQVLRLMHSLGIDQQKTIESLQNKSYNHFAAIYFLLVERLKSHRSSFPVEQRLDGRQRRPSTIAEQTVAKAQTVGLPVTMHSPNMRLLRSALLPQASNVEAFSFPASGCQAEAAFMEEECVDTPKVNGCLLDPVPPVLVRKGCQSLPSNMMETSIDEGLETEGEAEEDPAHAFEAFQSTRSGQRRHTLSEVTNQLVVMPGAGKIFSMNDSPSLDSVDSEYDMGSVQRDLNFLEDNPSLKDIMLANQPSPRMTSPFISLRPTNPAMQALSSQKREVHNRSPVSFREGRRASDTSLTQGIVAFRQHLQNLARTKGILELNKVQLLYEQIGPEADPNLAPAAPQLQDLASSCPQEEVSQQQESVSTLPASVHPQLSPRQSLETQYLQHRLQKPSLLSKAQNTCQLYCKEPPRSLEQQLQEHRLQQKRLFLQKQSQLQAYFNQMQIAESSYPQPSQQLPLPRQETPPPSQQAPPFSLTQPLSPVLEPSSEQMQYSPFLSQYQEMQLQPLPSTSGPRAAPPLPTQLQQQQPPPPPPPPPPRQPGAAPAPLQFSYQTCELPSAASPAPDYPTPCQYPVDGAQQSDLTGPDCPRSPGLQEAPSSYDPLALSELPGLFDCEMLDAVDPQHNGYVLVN
In short: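 Full-length SIK2 preincubated 60 min with 0–10 μM compound, then reacted 180 min at room temperature with 80 uM ATP and 0.5 μM biotinylated substrate (pH 7.5 Tris/MgCl2 buffer). Phosphorylation detected by TR-FRET (665/620 nm ratio, cryptate antibody/streptavidin-XL665) after overnight incubation; IC50 from four-parameter logistic fit.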

[3] = target: T3, SIK1 kinase (aa1-303, Thermo Fisher) (Homo sapiens, UniProt P57059); assay: Biochemical activities determination for SIK1 protein (TR-FRET); conditions: 110 uM ATP, 0.5 μM STK1 substrate
T3 construct: SIK1 kinase (aa1-303, Thermo Fisher); purchased Thermo Fisher
T3 sequence (P57059 1-303): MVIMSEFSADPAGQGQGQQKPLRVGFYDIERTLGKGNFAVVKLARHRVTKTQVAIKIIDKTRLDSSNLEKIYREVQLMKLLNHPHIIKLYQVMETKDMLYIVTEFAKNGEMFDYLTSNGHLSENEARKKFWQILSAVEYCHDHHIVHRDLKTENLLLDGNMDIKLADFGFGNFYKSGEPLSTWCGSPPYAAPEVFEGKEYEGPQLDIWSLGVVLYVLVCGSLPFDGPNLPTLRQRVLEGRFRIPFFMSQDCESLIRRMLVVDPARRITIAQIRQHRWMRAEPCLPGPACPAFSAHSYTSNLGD
In short: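 TR-FRET kinase assay with SIK1 (aa1-303), 110 uM ATP, 0.5 μM STK1 substrate and 0-10 μM compound in Tris pH 7.5 with MgCl2, EGTA, DTT, Triton X-100. Enzyme preincubated with compound 60 min, reaction 180 min at room temperature; 665/620 nm ratio after overnight detection; IC50 from four-parameter logistic fit.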

T1 sequence (Q9Y2K2 59-365): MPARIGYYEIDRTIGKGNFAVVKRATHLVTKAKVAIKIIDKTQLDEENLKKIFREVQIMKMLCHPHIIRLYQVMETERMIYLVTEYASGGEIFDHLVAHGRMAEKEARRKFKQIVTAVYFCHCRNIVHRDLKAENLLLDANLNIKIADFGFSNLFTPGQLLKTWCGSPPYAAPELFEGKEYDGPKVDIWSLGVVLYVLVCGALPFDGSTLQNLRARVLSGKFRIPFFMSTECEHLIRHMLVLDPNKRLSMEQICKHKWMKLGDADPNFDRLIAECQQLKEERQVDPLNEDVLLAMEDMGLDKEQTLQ

**Q.** `COc1cc(-c2coc3cc(OCCN4CCCC4)ccc23)cc(OC(F)F)c1C(=O)N[C@H]1C[C@@H]1F` [Compound 99, 2-(difluoromethoxy)-N-((1S,2S)-2-fluorocyclopropyl)-6-methoxy-4-(6-(2-(pyrrolidin-1-yl)ethoxy)benzofuran-3-yl)benzamide] was tested. Which IC50 [1] did it give?
**A.** 759 nM

**Q.** And the IC50 [2]?
**A.** 269 nM

**Q.** What about the IC50 [3] of the same molecule?
**A.** > 10000 nM

**Q.** Which results are given for `COc1cc(-c2coc3cc(OCCN4CCCC4)ccc23)cc(OC(F)F)c1C(=O)NC1CC1(F)F` (stereo not drawn) [Compound 100, N-(2,2-difluorocyclopropyl)-2-(difluoromethoxy)-6-methoxy-4-(6-(2-(pyrrolidin-1-yl)ethoxy)benzofuran-3-yl)benzamide]?
**A.** IC50 [1]: 80 nM; IC50 [2]: 31 nM; IC50 [3]: 3590 nM

**Q.** How did the IC50 [1] turn out when `O=C(NC1CC1)c1c(OC(F)F)cc(-c2coc3cc(OCCN4CCCC4)ccc23)cc1O[C@H]1CC[C@H](O)CC1` [Compound 101, N-cyclopropyl-2-(difluoromethoxy)-6-(((1r,4r)-4-hydroxycyclohexyl)oxy)-4-(6-(2-(pyrrolidin-1-yl)ethoxy)benzofuran-3-yl)benzamide] was run?
**A.** > 10000 nM

**Q.** And the IC50 [2]?
**A.** 8970 nM

**Q.** What about the IC50 [3] of the same molecule?
**A.** > 10000 nM

**Q.** Which IC50 [1] does the source give for `O=C(NC1CC1)c1c(OC(F)F)cc(-c2coc3cc(OCCN4CCCC4)ccc23)cc1O[C@H]1CC[C@@H](O)CC1` [Compound 102, N-cyclopropyl-2-(difluoromethoxy)-6-(((1s,4s)-4-hydroxycyclohexyl)oxy)-4-(6-(2-(pyrrolidin-1-yl)ethoxy)benzofuran-3-yl)benzamide] here?
**A.** > 10000 nM

**Q.** And the IC50 [2]?
**A.** 2480 nM

**Q.** And the IC50 [3]?
**A.** > 10000 nM

**Q.** Which results are given for `O=C(NC1CC1)c1c(OCCO)cc(-c2coc3cc(OCCN4CCCC4)ccc23)cc1OC(F)F` [Compound 103, N-cyclopropyl-2-(difluoromethoxy)-6-(2-hydroxyethoxy)-4-(6-(2-(pyrrolidin-1-yl)ethoxy)benzofuran-3-yl)benzamide]?
**A.** IC50 [1]: 410 nM; IC50 [2]: 114 nM; IC50 [3]: 9500 nM

**Q.** How did the IC50 [1] turn out when `O=C(NC1CC1)c1c(NCCO)cc(-c2coc3cc(OCCN4CCCC4)ccc23)cc1OC(F)F` [Compound 104, N-cyclopropyl-2-(difluoromethoxy)-6-((2-hydroxyethyl)amino)-4-(6-(2-(pyrrolidin-1-yl)ethoxy)benzofuran-3-yl)benzamide] was run?
**A.** 211 nM

**Q.** And the IC50 [2]?
**A.** 52 nM

**Q.** And the IC50 [3]?
**A.** 4580 nM

**Q.** How did the IC50 [1] turn out when `O=C(NC1CC1)c1c(F)cc(-c2coc3cc(OCCN4CCCC4)ccc23)cc1OC(F)F` [Compound 105, N-cyclopropyl-2-(difluoromethoxy)-6-fluoro-4-(6-(2-(pyrrolidin-1-yl)ethoxy)benzofuran-3-yl)benzamide] was run?
**A.** 1770 nM

**Q.** What about the IC50 [2] of the same molecule?
**A.** 398 nM

**Q.** What about the IC50 [3] of the same molecule?
**A.** > 10000 nM

**Q.** What does the source list for `CN1CC(Oc2cc(-c3coc4cc(OCCN5CCCC5)ccc34)cc(OC(F)F)c2C(=O)NC2CC2)C1` [Compound 106, N-cyclopropyl-2-(difluoromethoxy)-6-((1-methylazetidin-3-yl)oxy)-4-(6-(2-(pyrrolidin-1-yl)ethoxy)benzofuran-3-yl)benzamide]?
**A.** IC50 [1]: > 10000 nM; IC50 [2]: 2960 nM; IC50 [3]: > 10000 nM

**Q.** Which results are given for `CN1CCC[C@@H]1COc1cc(-c2coc3cc(OCCN4CCCC4)ccc23)cc(OC(F)F)c1C(=O)NC1CC1` [Compound 107, (R)—N-cyclopropyl-2-(difluoromethoxy)-6-((1-methylpyrrolidin-2-yl)methoxy)-4-(6-(2-(pyrrolidin-1-yl)ethoxy)benzofuran-3-yl)benzamide]?
**A.** IC50 [1]: > 10000 nM; IC50 [2]: 5610 nM; IC50 [3]: > 10000 nM

**Q.** Which results are given for `CC(C)(O)COc1cc(-c2coc3cc(OCCN4CCCC4)ccc23)cc(OC(F)F)c1C(=O)NC1CC1` [Compound 108, N-cyclopropyl-2-(difluoromethoxy)-6-(2-hydroxy-2-methylpropoxy)-4-(6-(2-(pyrrolidin-1-yl)ethoxy)benzofuran-3-yl)benzamide]?
**A.** IC50 [1]: > 10000 nM; IC50 [2]: 2780 nM; IC50 [3]: > 10000 nM

**Q.** For `NC1CC(Oc2cc(-c3coc4cc(OCCN5CCCC5)ccc34)cc(OC(F)F)c2C(=O)NC2CC2)C1` (stereo not drawn) [Compound 109, 2-(3-aminocyclobutoxy)-N-cyclopropyl-6-(difluoromethoxy)-4-(6-(2-(pyrrolidin-1-yl)ethoxy)benzofuran-3-yl)benzamide], which IC50 [1] is on record?
**A.** 2520 nM

**Q.** And the IC50 [2]?
**A.** 329 nM

**Q.** What about the IC50 [3] of the same molecule?
**A.** > 10000 nM

**Q.** Which IC50 [1] does the source give for `CN1CC[C@@H](Oc2cc(-c3coc4cc(OCCN5CCCC5)ccc34)cc(OC(F)F)c2C(=O)NC2CC2)C1` [Compound 110, (R)—N-cyclopropyl-2-(difluoromethoxy)-6-((1-methylpyrrolidin-3-yl)oxy)-4-(6-(2-(pyrrolidin-1-yl)ethoxy)benzofuran-3-yl)benzamide] here?
**A.** > 10000 nM

**Q.** What about the IC50 [2] of the same molecule?
**A.** 3850 nM

**Q.** And the IC50 [3]?
**A.** > 10000 nM

**Q.** Which IC50 [1] does the source give for `CN1CC[C@H](Oc2cc(-c3coc4cc(OCCN5CCCC5)ccc34)cc(OC(F)F)c2C(=O)NC2CC2)C1` [Compound 111, (S)—N-cyclopropyl-2-(difluoromethoxy)-6-((1-methylpyrrolidin-3-yl)oxy)-4-(6-(2-(pyrrolidin-1-yl)ethoxy)benzofuran-3-yl)benzamide] here?
**A.** 5700 nM

**Q.** What about the IC50 [2] of the same molecule?
**A.** 1190 nM

**Q.** What about the IC50 [3] of the same molecule?
**A.** > 10000 nM

**Q.** Which IC50 [1] does the source give for `CN1CC[C@@H](COc2cc(-c3coc4cc(OCCN5CCCC5)ccc34)cc(OC(F)F)c2C(=O)NC2CC2)C1` [Compound 112, (R)—N-cyclopropyl-2-(difluoromethoxy)-6-((1-methylpyrrolidin-3-yl)methoxy)-4-(6-(2-(pyrrolidin-1-yl)ethoxy)benzofuran-3-yl)benzamide] here?
**A.** 7620 nM

**Q.** What about the IC50 [2] of the same molecule?
**A.** 1300 nM

**Q.** And the IC50 [3]?
**A.** > 10000 nM

**Q.** Which IC50 [1] does the source give for `CN1CCC[C@H]1COc1cc(-c2coc3cc(OCCN4CCCC4)ccc23)cc(OC(F)F)c1C(=O)NC1CC1` [Compound 113, (S)—N-cyclopropyl-2-(difluoromethoxy)-6-((1-methylpyrrolidin-2-yl)methoxy)-4-(6-(2-(pyrrolidin-1-yl)ethoxy)benzofuran-3-yl)benzamide] here?
**A.** > 10000 nM

**Q.** What about the IC50 [2] of the same molecule?
**A.** 7320 nM

**Q.** What about the IC50 [3] of the same molecule?
**A.** > 10000 nM

**Q.** What does the source list for `CN1CC[C@@H]1COc1cc(-c2coc3cc(OCCN4CCCC4)ccc23)cc(OC(F)F)c1C(=O)NC1CC1` [Compound 114, (R)—N-cyclopropyl-2-(difluoromethoxy)-6-((1-methylazetidin-2-yl)methoxy)-4-(6-(2-(pyrrolidin-1-yl)ethoxy)benzofuran-3-yl)benzamide]?
**A.** IC50 [1]: 5490 nM; IC50 [2]: 745 nM; IC50 [3]: > 10000 nM

**Q.** What does the source list for `CN1CC(COc2cc(-c3coc4cc(OCCN5CCCC5)ccc34)cc(OC(F)F)c2C(=O)NC2CC2)C1` [Compound 115, N-cyclopropyl-2-(difluoromethoxy)-6-((1-methylazetidin-3-yl)methoxy)-4-(6-(2-(pyrrolidin-1-yl)ethoxy)benzofuran-3-yl)benzamide]?
**A.** IC50 [1]: 4240 nM; IC50 [2]: 582 nM; IC50 [3]: > 10000 nM

**Q.** `CN1CC[C@H](COc2cc(-c3coc4cc(OCCN5CCCC5)ccc34)cc(OC(F)F)c2C(=O)NC2CC2)C1` [Compound 116, (S)—N-cyclopropyl-2-(difluoromethoxy)-6-((1-methylpyrrolidin-3-yl)methoxy)-4-(6-(2-(pyrrolidin-1-yl)ethoxy)benzofuran-3-yl)benzamide] was tested. Which IC50 [1] did it give?
**A.** > 10000 nM

**Q.** What about the IC50 [2] of the same molecule?
**A.** 1120 nM

**Q.** What about the IC50 [3] of the same molecule?
**A.** > 10000 nM

**Q.** How did the IC50 [1] turn out when `CN1CC[C@H]1COc1cc(-c2coc3cc(OCCN4CCCC4)ccc23)cc(OC(F)F)c1C(=O)NC1CC1` [Compound 117, (S)—N-cyclopropyl-2-(difluoromethoxy)-6-((1-methylazetidin-2-yl)methoxy)-4-(6-(2-(pyrrolidin-1-yl)ethoxy)benzofuran-3-yl)benzamide] was run?
**A.** > 10000 nM

**Q.** What about the IC50 [2] of the same molecule?
**A.** 2940 nM

**Q.** And the IC50 [3]?
**A.** > 10000 nM

**Q.** Which results are given for `CN(C)CCOc1cc(-c2coc3cc(OCCN4CCCC4)ccc23)cc(OC(F)F)c1C(=O)NC1CC1` [Compound 118, N-cyclopropyl-2-(difluoromethoxy)-6-(2-(dimethylamino)ethoxy)-4-(6-(2-(pyrrolidin-1-yl)ethoxy)benzofuran-3-yl)benzamide]?
**A.** IC50 [1]: 6310 nM; IC50 [2]: 781 nM; IC50 [3]: > 10000 nM

**Q.** How did the IC50 [1] turn out when `CCOc1cc(-c2coc3cc(OCCN4CCCC4)ccc23)cc(OC(F)F)c1C(=O)NC1CC1` [Compound 119, N-cyclopropyl-2-(difluoromethoxy)-6-ethoxy-4-(6-(2-(pyrrolidin-1-yl)ethoxy)benzofuran-3-yl)benzamide] was run?
**A.** 452 nM

**Q.** What about the IC50 [2] of the same molecule?
**A.** 136 nM

**Q.** And the IC50 [3]?
**A.** 7180 nM

**Q.** Which results are given for `CC(C)Oc1cc(-c2coc3cc(OCCN4CCCC4)ccc23)cc(OC(F)F)c1C(=O)NC1CC1` [Compound 120, N-cyclopropyl-2-(difluoromethoxy)-6-isopropoxy-4-(6-(2-(pyrrolidin-1-yl)ethoxy)benzofuran-3-yl)benzamide]?
**A.** IC50 [1]: 2540 nM; IC50 [2]: 619 nM; IC50 [3]: > 10000 nM

**Q.** How did the IC50 [1] turn out when `O=C(NC1CC1)c1c(OC(F)F)cc(-c2coc3cc(OCCN4CCCC4)ccc23)cc1OC1CC1` [Compound 121, 2-cyclopropoxy-N-cyclopropyl-6-(difluoromethoxy)-4-(6-(2-(pyrrolidin-1-yl)ethoxy)benzofuran-3-yl)benzamide] was run?
**A.** 2120 nM

**Q.** What about the IC50 [2] of the same molecule?
**A.** 438 nM

**Q.** What about the IC50 [3] of the same molecule?
**A.** > 10000 nM

Reference: patent US20260085053A1, “BENZOFURAN DERIVATIVES AS SIK INHIBITORS AND THE USE THEREOF” (BEONE MEDICINES I GMBH, priority 2023, published 2026)
